Measured values from publication PMC5389515 (Nucleic Acids Research, 2016).

Key:
[1] = target: Trm11–Trm112 complex (Saccharomyces cerevisiae, UniProt Q12463, D291A); test: biochemical
[2] = target: Trm11–Trm112 complex (Saccharomyces cerevisiae, UniProt Q12463); test: biochemical
Sequence of Trm11–Trm112 complex (Saccharomyces cerevisiae, UniProt Q12463) (Q12463 whole entry): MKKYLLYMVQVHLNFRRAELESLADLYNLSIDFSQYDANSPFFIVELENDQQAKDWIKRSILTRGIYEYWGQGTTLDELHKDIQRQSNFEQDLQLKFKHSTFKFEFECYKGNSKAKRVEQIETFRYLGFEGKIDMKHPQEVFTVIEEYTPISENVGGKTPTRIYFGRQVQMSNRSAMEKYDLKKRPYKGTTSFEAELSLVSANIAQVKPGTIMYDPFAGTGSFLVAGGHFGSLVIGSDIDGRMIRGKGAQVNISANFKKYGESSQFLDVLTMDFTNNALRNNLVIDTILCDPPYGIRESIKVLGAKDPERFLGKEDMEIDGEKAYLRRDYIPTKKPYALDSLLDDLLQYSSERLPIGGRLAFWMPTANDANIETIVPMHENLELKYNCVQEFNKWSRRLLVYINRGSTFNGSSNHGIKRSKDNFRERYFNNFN
Sequence of Trm11–Trm112 complex (Saccharomyces cerevisiae, UniProt Q12463) (P53738 whole entry partner): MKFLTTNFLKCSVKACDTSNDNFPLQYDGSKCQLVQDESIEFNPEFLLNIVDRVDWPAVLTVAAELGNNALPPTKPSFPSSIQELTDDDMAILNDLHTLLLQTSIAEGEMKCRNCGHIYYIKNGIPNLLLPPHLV

Sequence of Trm11–Trm112 complex (Saccharomyces cerevisiae, UniProt Q12463, D291A) (Q12463 whole entry D291A): as the sequence (Q12463 whole entry) above, with D291A counted along it
Sequence of Trm11–Trm112 complex (Saccharomyces cerevisiae, UniProt Q12463, D291A) (P53738 whole entry partner): as the sequence (P53738 whole entry partner) above

- Kd [1]: 3.4 ± 0.6 µM
- Kd [2]: 1.9 ± 0.3 µM
Structure (SMILES): C[S+](CC[C@H](N)C(=O)O)C[C@H]1O[C@@H](n2cnc3c(N)ncnc32)[C@H](O)[C@@H]1O (some centres unmarked) [SAM]
